Among the data in patent publication US20260308159A1, “BICYCLIC HETEROARYLAMIDES HAVING GPR68 MODULATING ACTIVITY” (RECURSION PHARMACEUTICALS, INC., priority 2023, published 2026) are IC50 values, retold here.

Usually IC50 stands for the point on the concentration scale where inhibition reaches its midpoint.

For the experiment, the target named is T1, human GPR68 (Homo sapiens, UniProt Q15743).
T1 construct: encoding full-length human GPR68 (uniprot ID: Q15743); expressed in transfected cells; host or cells: HEK293T
Briefly: GPR68 Biochemical Assay (Promega GloSensor cAMP assay, GPR68 antagonism). It is filed as cell-based. As to conditions: HEK293T cells transiently expressing hGPR68, antagonism of pH 5.5 stimulated cAMP, 15 min, read-out: hGPR68 IC50. An outline of the steps: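 Readout is GloSensor cAMP luminescence after 15 min at room temperature, normalised between pH 5.5 stimulation and pH 8.0 minimum controls; IC50 fitted sigmoidally. Test compounds, up to 50 μM final (9-point half-log, 0.5% DMSO), were co-added with pH 5.5 buffer to HEK293T cells transiently expressing full-length human GPR68 plus GloSensor.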

T1 sequence (Q15743 whole entry): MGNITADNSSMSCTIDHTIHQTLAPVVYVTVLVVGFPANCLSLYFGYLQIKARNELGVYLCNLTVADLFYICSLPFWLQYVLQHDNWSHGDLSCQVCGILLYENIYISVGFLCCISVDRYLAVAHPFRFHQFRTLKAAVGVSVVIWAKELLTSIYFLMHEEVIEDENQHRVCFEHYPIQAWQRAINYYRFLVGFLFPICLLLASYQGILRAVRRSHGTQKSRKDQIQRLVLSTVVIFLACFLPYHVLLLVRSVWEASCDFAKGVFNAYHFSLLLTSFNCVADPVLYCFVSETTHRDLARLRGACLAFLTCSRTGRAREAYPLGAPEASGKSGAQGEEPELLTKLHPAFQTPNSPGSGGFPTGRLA

Take `COCc1nc2c(C(=O)NC3Cc4cscc4C3)ccnn2c1C(N)=O` [Compound 105, N8-(5,6-dihydro-4H-cyclopenta[c]thiophen-5-yl)-2-(methoxymethyl)imidazo[1,2-b]pyridazine-3,8-dicarboxamide]: the half-maximal inhibitory concentration (IC50) is below 50 nM.

For `COCc1nc2c(C(=O)NC3Cc4ccccc43)ccnn2c1C(N)=O` (centres unmarked) [Compound 106, N8-(7-bicyclo[4.2.0]octa-1,3,5-trienyl)-2-(methoxymethyl)imidazo[1,2-b]pyridazine-3,8-dicarboxamide], the IC50 is below 50 nM.

Consider `COCc1nc2c(C(=O)NC3CC(F)(F)c4ccccc43)ccnn2c1C(N)=O` (centres unmarked) [Compound 107, N8-(3,3-difluoroindan-1-yl)-2-(methoxymethyl)imidazo[1,2-b]pyridazine-3,8-dicarboxamide], for which the concentration for half-maximal inhibition (IC50) was below 50 nM.

In the case of `COCc1nc2c(C(=O)N[C@H]3CCOc4cc(F)ccc43)ccnn2c1C(N)=O` [Compound 108, 2-(methoxymethyl)-N8-[(4S)-7-fluorochroman-4-yl]imidazo[1,2-b]pyridazine-3,8-dicarboxamide], the 50% inhibitory concentration (IC50) was below 50 nM.

`COCc1nc2c(C(=O)NC3CCC(F)(F)CC3)ccnn2c1C(N)=O` [Compound 109, N8-(4,4-difluorocyclohexyl)-2-(methoxymethyl)imidazo[1,2-b]pyridazine-3,8-dicarboxamide]: the IC50 is below 50 nM.

On to `COCc1nc2c(C(=O)NCc3ccc(F)cc3)ccnn2c1C(N)=O` [Compound 110, N8-[(4-fluorophenyl)methyl]-2-(methoxymethyl)imidazo[1,2-b]pyridazine-3,8-dicarboxamide], for which the half-maximal inhibitory concentration (IC50) is below 50 nM.

With `NC(=O)c1c(C2CC2)nn2c(C(=O)N[C@H]3C[C@@H](OC(F)(F)F)C3)ccnc12` [Compound 111, 2-cyclopropyl-N7-[cis-3-(trifluoromethoxy)cyclobutyl]pyrazolo[1,5-a]pyrimidine-3,7-dicarboxamide], the IC50 is below 50 nM.

In the case of `NC(=O)c1c(C2CC2)nn2c(C(=O)NC3CC(F)(F)c4ccccc43)ccnc12` (centres unmarked) [Compound 112, 2-cyclopropyl-N7-(3,3-difluoroindan-1-yl)pyrazolo[1,5-a]pyrimidine-3,7-dicarboxamide], the IC50 was below 50 nM.

Turning to `NC(=O)c1c(C2CC2)nn2c(C(=O)N[C@H]3CCOc4cc(F)ccc43)ccnc12` [Compound 113, 2-cyclopropyl-N7-[(4S)-7-fluorochroman-4-yl]pyrazolo[1,5-a]pyrimidine-3,7-dicarboxamide], the IC50 was below 50 nM.

Take `COCc1nn2c(C(=O)NC3COc4ccc(Cl)cc4C3)ccnc2c1C(N)=O` (centres unmarked) [Compound 114, N7-(6-chlorochroman-3-yl)-2-(methoxymethyl)pyrazolo[1,5-a]pyrimidine-3,7-dicarboxamide]: the concentration for half-maximal inhibition (IC50) is below 50 nM.

As for `NC(=O)c1c(C2CC2)nn2c(C(=O)NC3Cc4cccnc4C3)ccnc12` (centres unmarked) [Compound 115, 2-cyclopropyl-N7-(6,7-dihydro-5H-cyclopenta[b]pyridin-6-yl)pyrazolo[1,5-a]pyrimidine-3,7-dicarboxamide], the IC50 was below 50 nM.

Consider `COCc1nn2c(C(=O)NC3CCC(F)(F)c4ccccc43)ccnc2c1C(N)=O` (centres unmarked) [Compound 116, N7-(4,4-difluorotetralin-1-yl)-2-(methoxymethyl)pyrazolo[1,5-a]pyrimidine-3,7-dicarboxamide], for which the IC50 is below 50 nM.

In the case of `COCc1nn2c(C(=O)Nc3cnc4c(F)cccc4c3)ccnc2c1C(N)=O` [Compound 117, N7-(8-fluoro-3-quinolyl)-2-(methoxymethyl)pyrazolo[1,5-a]pyrimidine-3,7-dicarboxamide], the IC50 was below 50 nM.

For the compound `COCc1nn2c(C(=O)Nc3cc4ccccc4n3C)ccnc2c1C(N)=O` [Compound 118, 2-(methoxymethyl)-N7-(1-methylindol-2-yl)pyrazolo[1,5-a]pyrimidine-3,7-dicarboxamide], the IC50 was below 50 nM.

For the compound `COCc1nn2c(C(=O)N[C@H]3COc4c3ccc(F)c4F)ccnc2c1C(N)=O` [Compound 119, 2-(methoxymethyl)-N7-[(3R)-6,7-difluoro-2,3-dihydrobenzofuran-3-yl]pyrazolo[1,5-a]pyrimidine-3,7-dicarboxamide], the 50% inhibitory concentration (IC50) was below 50 nM.

Consider `COCc1nn2c(C(=O)N[C@H]3COc4ccc(F)cc43)ccnc2c1C(N)=O` [Compound 120, N7-[(3R)-5-fluoro-2,3-dihydrobenzofuran-3-yl]-2-(methoxymethyl)pyrazolo[1,5-a]pyrimidine-3,7-dicarboxamide], for which the IC50 is below 50 nM.

For the compound `COCc1nn2c(C(=O)NC3(C)Cc4ccccc4C3)ccnc2c1C(N)=O` [Compound 121, 2-(methoxymethyl)-N7-(2-methylindan-2-yl)pyrazolo[1,5-a]pyrimidine-3,7-dicarboxamide], the IC50 is 50 to 500 nM.

On to `COCc1nn2c(C(=O)NC(C)c3ccc(F)cc3)ccnc2c1C(N)=O` (centres unmarked) [Compound 122, N7-[1-(4-fluorophenyl)ethyl]-2-(methoxymethyl)pyrazolo[1,5-a]pyrimidine-3,7-dicarboxamide], for which the IC50 was 50 to 500 nM.

Turning to `COCc1nn2c(C(=O)N[C@H]3CCOc4cc(F)ccc43)ccnc2c1C(N)=O` [Compound 123, 2-(methoxymethyl)-N7-[(4S)-7-fluorochroman-4-yl]pyrazolo[1,5-a]pyrimidine-3,7-dicarboxamide], the half-inhibitory concentration (IC50) was below 50 nM.

Regarding `COCc1nn2c(C(=O)NC3(C)CC4(CC(F)(F)C4)C3)ccnc2c1C(N)=O` [Compound 124, N7-(2,2-difluoro-6-methyl-spiro[3.3]heptan-6-yl)-2-(methoxymethyl)pyrazolo[1,5-a]pyrimidine-3,7-dicarboxamide], the IC50 was in the range of 500 to 5000 nM.

Consider `COCc1nn2c(C(=O)NC(c3ccc(F)cc3)C(F)(F)F)ccnc2c1C(N)=O` (centres unmarked) [Compound 125, 2-(methoxymethyl)-N7-[2,2,2-trifluoro-1-(4-fluorophenyl)ethyl]pyrazolo[1,5-a]pyrimidine-3,7-dicarboxamide], for which the 50% inhibitory concentration (IC50) was 500 to 5000 nM.

Take `COCc1nn2c(C(=O)NC3CC4(C3)CC(F)(F)C4)ccnc2c1C(N)=O` [Compound 126, N7-(2,2-difluorospiro[3.3]heptan-6-yl)-2-(methoxymethyl)pyrazolo[1,5-a]pyrimidine-3,7-dicarboxamide]: the IC50 fell in the range of 50 to 500 nM.

Take `COCc1nn2c(C(=O)NC3(c4ccc(F)cc4)CC3)ccnc2c1C(N)=O` [Compound 127, N7-[1-(4-fluorophenyl)cyclopropyl]-2-(methoxymethyl)pyrazolo[1,5-a]pyrimidine-3,7-dicarboxamide]: the IC50 is 50 to 500 nM.

On to `COCc1nn2c(C(=O)N[C@H]3COc4cc(F)ccc43)ccnc2c1C(N)=O` [Compound 128, 2-(methoxymethyl)-N7-[(3R)-6-fluoro-2,3-dihydrobenzofuran-3-yl]pyrazolo[1,5-a]pyrimidine-3,7-dicarboxamide], for which the concentration for half-maximal inhibition (IC50) was below 50 nM.

With `COCc1nn2c(C(=O)NC3CC(F)(F)c4ccccc43)ccnc2c1C(N)=O` (centres unmarked) [Compound 129, N7-(3,3-difluoroindan-1-yl)-2-(methoxymethyl)pyrazolo[1,5-a]pyrimidine-3,7-dicarboxamide], the IC50 is below 50 nM.

Consider `NC(=O)c1c(C2CC2)nn2c(C(=O)NC3Cc4ccccc4C3)ccnc12` [Compound 130, 2-cyclopropyl-N7-indan-2-yl-pyrazolo[1,5-a]pyrimidine-3,7-dicarboxamide], for which the IC50 was below 50 nM.

As to `COCc1nn2c(C(=O)NC3CCC34CC(F)(F)C4)ccnc2c1C(N)=O` (centres unmarked) [Compound 131, N7-(2,2-difluorospiro[3.3]heptan-7-yl)-2-(methoxymethyl)pyrazolo[1,5-a]pyrimidine-3,7-dicarboxamide], the IC50 fell in the range of 500 to 5000 nM.

As for `COCc1nn2c(C(=O)N[C@H]3CC[C@@H](OC(F)(F)F)CC3)ccnc2c1C(N)=O` [Compound 132, 2-(methoxymethyl)-N7-[cis-4-(trifluoromethoxy)cyclohexyl]pyrazolo[1,5-a]pyrimidine-3,7-dicarboxamide], the IC50 lay in the range of 50 to 500 nM.

As to `COCc1nn2c(C(=O)NCC3CCC(F)(F)CC3)ccnc2c1C(N)=O` [Compound 133, N7-[(4,4-difluorocyclohexyl)methyl]-2-(methoxymethyl)pyrazolo[1,5-a]pyrimidine-3,7-dicarboxamide], the IC50 is below 50 nM.

As to `NC(=O)c1c(C2CC2)nn2c(C(=O)NC3Cc4cscc4C3)ccnc12` [Compound 134, 2-cyclopropyl-N7-(5,6-dihydro-4H-cyclopenta[c]thiophen-5-yl)pyrazolo[1,5-a]pyrimidine-3,7-dicarboxamide], the IC50 is below 50 nM.

Take `NC(=O)c1c(C2CC2)nn2c(C(=O)NC3CCC(F)(F)CC3)ccnc12` [Compound 135, 2-cyclopropyl-N7-(4,4-difluorocyclohexyl)pyrazolo[1,5-a]pyrimidine-3,7-dicarboxamide]: the IC50 was below 50 nM.

For the compound `NC(=O)c1c(C2CC2)nn2c(C(=O)NC3CC(F)(F)C3)ccnc12` [Compound 136, 2-cyclopropyl-N7-(3,3-difluorocyclobutyl)pyrazolo[1,5-a]pyrimidine-3,7-dicarboxamide], the IC50 was below 50 nM.

For the compound `CCCc1nn2c(C(=O)N[C@H]3C[C@@H](OC(F)(F)F)C3)ccnc2c1C(N)=O` [Compound 137, 2-propyl-N7-[cis-3-(trifluoromethoxy)cyclobutyl]pyrazolo[1,5-a]pyrimidine-3,7-dicarboxamide], the concentration for half-maximal inhibition (IC50) is below 50 nM.

Consider `NC(=O)c1c(C2CC2)nn2c(C(=O)NC3Cc4ccccc43)ccnc12` (centres unmarked) [Compound 138, N7-(7-bicyclo[4.2.0]octa-1,3,5-trienyl)-2-cyclopropyl-pyrazolo[1,5-a]pyrimidine-3,7-dicarboxamide], for which the 50% inhibitory concentration (IC50) was below 50 nM.

Regarding `CCCc1nn2c(C(=O)NC3Cc4ccccc4C3)ccnc2c1C(N)=O` [Compound 139, N7-indan-2-yl-2-propyl-pyrazolo[1,5-a]pyrimidine-3,7-dicarboxamide], the concentration for half-maximal inhibition (IC50) is below 50 nM.
